Assay results as given in patent publication US9101603B2, “Targeting of CYP1B1 in the treatment of head and neck cancer and lung cancer” (Institute for Cancer Research, priority 2010, dated 2015).

How the values were obtained:
Format in all cases: cell-based
MSK-Leuk1 cells [1] = experiment: Cell proliferation (total DNA content, Fluorescent DNA Quantitation kit); settings: vector-expressing cells; 1 nM E2; 72 h; not statistically significant
Experimental: (§1) For all the experiments that involved estradiol (E2) exposure, MSK-Leuk1 cells were cultured in phenol red-free and serum-free DermaLife® K Medium (Lifeline Cell Technology, Walkersville, Md.). SCC cells were cultured in their respective media with no phenol red, supplemented with charcoal-stripped serum (Gibco, Carlsbad, Calif.). Cells were incubated for 48 h to remove endogenous estrogens and then plated at 70% confluence. After 24 h, the medium was replaced with either control medium containing vehicle (0.01% ethanol) or medium supplemented with 1 nM E2 (Sigma-Aldrich, St. Louis, Mo.). Cells were harvested after the appropriate treatment period and analyzed.
Cell proliferation. Fifty thousand cells/well were plated in 6-well plates. After the appropriate treatment, the DNA content of the cells, an indirect measure of proliferation, was determined using a Fluorescent DNA Quantitation kit (Bio-Rad Laboratories, Hercules, Calif.). In brief, cells were harvested, sonicated in 0.1×TEN assay buffer (Bio-Rad Laboratories) for 5 s, and incubated with a Hoechst dye mixture (BioRad Laboratories) for 1 h. Total DNA was measured using Fluoroscan Ascent FL (Thermo Fisher Scientific, Waltham, Mass.) at an excitation wavelength of 360 nm and an emission wavelength of 460 nm.

MSK-Leuk1 cells [2] = experiment: Cell motility assay (scratch gap closure, 16 h), vector- or CYP1B1 shRNA-expressing cells; settings: 1 nM E2, vector- and CYP1B1 shRNA-expressing MSK-Leuk1 cells
Experimental: as §1
Cell motility assay. MSK-Leuk1 cells, expressing either vector or CYP1B1 shRNA, were cultured in phenol red-free and serum-free medium for 48 h and then plated at 70% confluence. After 24 h, the cells were treated with either vehicle or E2 (1 nM) in triplicate, as described above. […] The area devoid of cells was measured on every image using MetaMorph 7.0 (Molecular Devices, Inc., Sunnyvale, Calif.). The gap closure percentages were calculated as (area at 0 h−area at 16 h)/(area at 0 h).
In addition, a time-lapse movie capturing the process of gap closure in vector-expressing MSK-Leuk1 cells was obtained. […] The percentage of proliferating cells (those rounded up for cell division) was counted in this representative area.

MSK-Leuk1 cells [3] = experiment: Apoptosis assay (Guava Nexin kit, annexin V positive cells); settings: 72 h; for decrease of apoptosis by exposure to E2: 1 nM E2; for effect on the E2-mediated decrease in apoptosis: fulvestrant 1 μM added to 1 nM E2
Experimental: as §1
Apoptosis assay. Apoptosis was assessed using the Guava Nexin kit (Millipore, Billerica, Mass.). Fifty thousand cells were plated per well in 6-well plates. After the appropriate treatment, floating cells were collected, combined with attached cells following trypsinization, and resuspended in DermaLife® K Medium (Lifeline Cell Technology, Walkersville, Md.) supplemented with 5% FBS. The cell suspension (100 μl) was incubated with 100 μl of Guava® Nexin Reagent for 20 min, according to the manufacturer's instructions. Two thousand cells were analyzed from each sample using the Guava® EasyCyte™ system, and the resulting data were expressed as a percentage of apoptotic cells (annexin V positive cells/total number of cells counted).

| SMILES | induction of cell proliferation by E2 exposure (MSK-Leuk1 cells [1]) | effect of E2 treatment on motility (MSK-Leuk1 cells [2]) | decrease of apoptosis by exposure to E2 (MSK-Leuk1 cells [3]; CYP1B1 shRNA-expressing cells, P=0.015) | decrease of apoptosis by exposure to E2 (MSK-Leuk1 cells [3]; vector-expressing cells, P=0.030) | effect on the E2-mediated decrease in apoptosis (MSK-Leuk1 cells [3]) | effect on the E2-mediated decrease in apoptosis (MSK-Leuk1 cells [3]; listed as Fulvestrant) |
| --- | --- | --- | --- | --- | --- | --- |
| C[C@]12CC[C@@H]3c4ccc(O)cc4CC[C@H]3[C@@H]1CC[C@@H]2O [E2, 17β-estradiol] | 10% | not affected | 30.1% | 25.5% |  |  |
| C[C@]12CC[C@@H]3c4ccc(O)cc4C[C@@H](CCCCCCCCC[S+]([O-])CCCC(F)(F)C(F)(F)F)[C@H]3[C@@H]1CC[C@@H]2O (stereo partly drawn) [fulvestrant] |  |  |  |  | restored | restores |
